From the supplement of paper PMC11061612

Key:
[1] = test system: Raji (Burkitt's Lymphoma); test: combination Emax (second highest fraction inhibited in the dose matrix, 72 h); higher = more inhibition; extreme values may be limits of the assay
Method in brief: (§1)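 Cell lines in DMEM/F12 or RPMI with 10% FBS were plated in 1536-well plates, held 24 hours at 37°C, 5% CO2, then given two-drug dose matrices for 72 hours (DMSO typically 0.2%). Viability was read by CellTiter-Glo 2.0 luminescence and scaled as inhibition from 0 (vehicle wells) to 1 (blank wells). Combination Emax is the second-highest inhibition in the matrix; Bliss excess is observed combination effect minus expected EA + EB − EA·EB, EA and EB being single-agent effects.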

[2] = test system: T84 (Colorectal Carcinoma); test: as above
Method in brief: as §1

[3] = test system: DBTRG-05MG (Glioblastoma); test: as above
Method in brief: as §1

[4] = test system: SiHa (Cervical Carcinoma); test: as above
Method in brief: as §1

[5] = test system: SAT (Head and Neck Carcinoma); test: as above
Method in brief: as §1

[6] = test system: CL-11 (Colorectal Carcinoma); test: as above
Method in brief: as §1

[7] = test system: OVCAR-3 (Ovarian Carcinoma); test: as above
Method in brief: as §1

[8] = test system: SNU-C2B (Colorectal Carcinoma); test: as above
Method in brief: as §1

[9] = test system: MM1S (Plasma Cell Myeloma); test: as above
Method in brief: as §1

[10] = test system: NCI-H1876 (Small Cell Lung Carcinoma); test: as above
Method in brief: as §1

[11] = test system: CPC-N (Small Cell Lung Carcinoma); test: as above
Method in brief: as §1

[12] = test system: C-33-A (Cervical Carcinoma); test: as above
Method in brief: as §1

[13] = test system: LS-1034 (Colorectal Carcinoma); test: as above
Method in brief: as §1

[14] = test system: NCI-H1341 (Small Cell Lung Carcinoma); test: as above
Method in brief: as §1

[15] = test system: HT-1080 (Other Solid Carcinomas); test: as above
Method in brief: as §1

[16] = test system: OAW-28 (Ovarian Carcinoma); test: as above
Method in brief: as §1

SK-N-SH (Neuroblastoma) = test: as above
Method in brief: as §1

[17] = test system: SNU-423 (Hepatocellular Carcinoma); test: Bliss excess, mean over the matrix (fraction); higher = more synergy
Method in brief: as §1

[18] = test system: LCLC-103H (Non-Small Cell Lung Carcinoma); test: as above
Method in brief: as §1

[19] = test system: NCI-H1341 (Small Cell Lung Carcinoma); test: as above
Method in brief: as §1
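Wherever Bliss excess, mean over the matrix is given: after 72 h of two-drug dosing.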

Structure (SMILES)	combination Emax [1]	combination Emax [2]	combination Emax [3]	combination Emax [4]	combination Emax [5]	combination Emax [6]	combination Emax [7]	combination Emax [8]	combination Emax [9]	combination Emax [10]	combination Emax [11]	combination Emax [12]	combination Emax [13]	combination Emax [14]	combination Emax [15]	combination Emax [16]	combination Emax (SK-N-SH (Neuroblastoma))	Bliss excess [17]	Bliss excess [18]	Bliss excess [19]
CN(C)CCCOc1ccc(-c2ccc3ncc4c(c3c2)n(C2CCOCC2)c(=O)n4C)cn1 [AZD0156] + CCN(CCO)CCCOc1ccc2c(Nc3cc(CC(=O)Nc4cccc(F)c4)[nH]n3)ncnc2c1 [AZD2811] (first compound max 1 µM, 7x7, partner max 1 µM)	0.165	0.023	0.154	0.135	0.142	0.0968	0.105	0.113	0.34	0.853	0.794	0.0887	0.108	0.409	0.142	0.175	0.479	-0.0192	-0.0395	0.005
NC1(C(=O)N[C@@H](CCO)c2ccc(Cl)cc2)CCN(c2ncnc3[nH]ccc23)CC1 [Capivasertib] + COc1nnc2ccc(N3CCC(c4ccc(OCCN5CCN(C)C(=O)[C@H]5C)cc4)CC3)nn12 [AZD5153] (first compound max 10 µM, 7x7, partner max 1 µM)	0.646	0.367	0.206	0.644	0.811	0.688	0.526	0.54	1	0.579	0.811	0.779	0.499	0.851	0.388	0.493	0.624	0.0056	-0.0028	0.0383
COc1cccc(OCCCN)c1-c1cc(Nc2cnc(C#N)cn2)n[nH]1 [Prexasertib] + CCc1c2c(nc3ccc(O)cc13)-c1cc3c(c(=O)n1C2)COC(=O)[C@]3(O)CC [SN-38] (first compound max 1 µM, 7x7, partner max 0.3 µM)	0.983	0.866	0.624	0.578	0.618	0.849	0.963	0.658	1	1	1	0.992	0.897	0.987	0.651	1	0.947	0.0169	0.081	-0.0174
C=CCn1c(=O)c2cnc(Nc3ccc(N4CCN(C)CC4)cc3)nc2n1-c1cccc(C(C)(C)O)n1 [AZD1775] + O=C(c1cc(Cc2n[nH]c(=O)c3ccccc23)ccc1F)N1CCN(C(=O)C2CC2)CC1 [Olaparib] (first compound max 1 µM, partner max 10 µM)	0.74	0.745	0.248	0.199	0.449	0.584	0.532	0.601	0.779	0.968	0.93	0.914	0.372	0.525	0.354	0.251	0.882	-0.0577	-0.0334	-0.0236
C[C@@H](c1ccc2nccn2c1)n1nnc2ncc(-c3cnn(C)c3)nc21 [Savolitinib] + CC1(C)CCC(CN2CCN(c3ccc(C(=O)NS(=O)(=O)c4ccc(NCC5CCOCC5)c([N+](=O)[O-])c4)c(Oc4cnc5[nH]ccc5c4)c3)CC2)=C(c2ccc(Cl)cc2)C1 [Venetoclax] (first compound max 1 µM, 7x7, partner max 1 µM)	0.171	0.0875	0.117	0.137	0.151	0.09	0.0969	0.0589	0.116	0.0954	0.203	0.0882	0.0816	0.392	0.0906	0.163	0.32	-0.0205	-0.0518	0.0535
CN(CCO)CC[C@H](CSc1ccccc1)Nc1ccc(S(=O)(=O)NC(=O)c2ccc(N3CCC([C@@H](O)c4ccccc4-c4ccc(Cl)cc4)CC3)cc2)cc1S(=O)(=O)C(F)(F)F [AZD4320] + C[C@@H]1COCCN1C2=NC(=NC(=C2)C3(CC3)[S@](=N)(=O)C)C4=C5C=CNC5=NC=C4 [AZD6738] (first compound max 1 µM, 7x7, partner max 10 µM)	0.768	0.719	0.834	0.246	0.587	0.895	0.555	0.636	1	1	1	0.928	0.721	1	0.656	0.957	0.988	-0.0359	-0.0362	-0.0017
